What was measured:
mouse CaMKIV = assay: siRNA knock-down of CaMKIV expression in cultured cortical neurons (western blot); format: cell-based; conditions: 30 nM siRNA, 48 h after transfection, n=3 experiments
Experimental: Cortical neurons were prepared from postnatal day 0 (P0) mice. All procedures were reviewed and approved by the Institutional Animal Care and Use Committee at University of Toronto, in accordance with the guidelines of the Canadian Council on Animal Care. The Cerebral cortexes were dissected, minced, and trypsinized for 15 min using 0.125% trypsin (Invitrogen, CA). Cells were seeded at the density of 4˜5×10^5 cells/cm^2 onto 60 mm dishes or 96-well plates precoated with 50 μg/ml poly-D-lysine (Sigma, Mo.) in water, and grown in Neurobasal-A medium (Invitrogen, CA) supplemented with B27 and GlutaMax (Invitrogen, CA). The cultures were incubated at 37° C. in 95% air, 5% carbon dioxide with 95% humidity.
sequence 1: sense 5′-[…]tt-3′, antisense 5′-[…]tt-3′ and sequence 2: sense 5′-[…]tt-3′, antisense 5′-[…]tt-3′, respectively (Ambion, Tex.). The annealed siRNA was reconstituted at the concentration of 100 μM for transfection. […] Cells were harvested and analyzed 48 h after transfection.
The cultured cortical neurons were harvested and homogenized in lysis buffer containing proteinase inhibitor cocktail (Sigma, Mo.). Protein was quantified by Bradford assay, and electrophoresis of equal amounts of total protein was performed on SDS-polyacrylamide gels. […] The density of immunoblots was measured using NIH ImageJ software.

[1] = tested on: substantia gelatiosa (SG) neurons in lamina II of the dorsal horn; assay: Whole-cell patch clamp recording of sIPSCs in spinal cord slices; format: cell-based, mouse
Experimental: Postnatal mice (12-19 days old) were anesthetized with 1-2% halothane and the thoracic and lumbar spinal cord were dissected out and put into pre-equilibrated artificial cerebrospinal solution fluid (ACSF) at 1-4° C. The spinal cord was placed into the shallow groove of an agar block, and several drops of 20% gelatin were placed on the low-thoracic and high-lumbar segment to half-embed the spinal cord. The agar block, together with the half-embedded spinal cord, was glued on the stage of a vibratome with cyanoacrylate adhesive, and was immersed in the ice-cold ACSF. Then, transverse slices of the lumber spinal cord (350 μm) were prepared. Slices were transferred to a room temperature submerged recovery chamber with oxygenated (95% O2 and 5% CO2) solution containing (in mM): NaCl, 124; NaHCO3, 25; KCl, 4.4; KH2PO4, 1; CaCl2, 2; MgSO4, 2; glucose, 10. After one hr recovery, slices were placed in a recording chamber on the stage of an Axioskop 2FS microscope (Zeiss) equipped with infrared DIC optics for patch clamp recordings. Substantia gelatiosa (SG) could be identified as a translucent band capping the dorsal part of the gray matter under the microscope. Spontaneous inhibitory postsynaptic currents (sIPSCs) were recorded with an Axon 200B amplifier (Axon Instruments, CA). Recording electrodes (3-5 MΩ) contained a pipette solution composed of (in mM): Cs-gluconate, 120; NaCl, 5; MgCl2 1; EGTA, 0.5; Mg-ATP, 2; Na3GTP, 0.1; HEPES, 10; pH 7.2; 280-300 mOsmol. Access resistance was 15-30 MΩ and was monitored throughout the experiment. Data were discarded if access resistance changed more than 15% during an experiment. The membrane potential was held at […] throughout the experiment. A holding potential of +10 mV was used to record spontaneous inhibitory postsynaptic currents (sIPSCs).

[2] = tested on: pCREB expression in the spinal cord; assay: pCREB expression in spinal cord after chronic morphine (western blot); format: in vivo, mouse; conditions: chronic morphine 10 mg/kg s.c. daily for seven days
Experimental: Open field locomotor activity was recorded for 1 hr after injection followed by determination of hot plate and tail flick response latencies.
Spinal cords were dounce-homogenized (18 strokes) in 10 volumes of 10 mM Tris-Cl (pH 7.4), 320 mM Sucrose, and 1% SDS. The tissue homogenates were centrifuged at 21,000×g at 4° C. for 5 min. Equal amounts of protein from tissue samples were separated by 4-12% gradient SDS-PAGE (Invitrogen), followed by Western blotting with anti-MOR-1 (1:1000), anti-pCREB (1:1000) (Santa Cruz Biotechnology) or anti-phosphoserine antibody (for immunoprecipitated samples, 1:1000) (Sigma) followed by revelation with ECL (Amersham). Membranes (BioTrace PVDF, Pall Co.) were routinely stripped and re-probed with a monoclonal antibody for actin (1:5000, Sigma) blotting to ensure equal protein loading.

[3] = tested on: pCREB in lamina I-II of the dorsal horn; assay: pCREB immunostaining in spinal cord after chronic morphine; format: in vivo, mouse; conditions: chronic morphine vs saline; both CaMKIV KO and wild-type mice; p<0.001
Experimental: Spinal cord slices at the lumbar region were prepared using standard histological methods. Slices were incubated with rabbit anti-pCREB IgG (1:250) (Calbiochem) or rabbit anti-MOR IgG (1:500) (ImmunoStar Incorporated) at 4° C. overnight. Followed by donkey anti-rabbit IgG conjugated with Alexa 488 (1:500) (Molecular Probes) for one hour at room temperature. Measurements were made from at least three randomly selected non-contiguous sections in each mouse (3-4 mice per treatment group), observed from coded slides and averaged so that each animal has a mean value for regional immunoreactivity. The total number and density of positive cells were measured in dorsal horn layers I-II and ventral horn layers VI-IX. All data were expressed as a ratio between cell number or density and unit area. Images were obtained with an Olympus microscope. Data were analyzed with ImagePro software (Media-Cybrenetics,).

[4] = target: T1, CaMKIV transiently expressed in HEK293 cells (Homo sapiens, UniProt Q16566); assay: CREB luciferase reporter assay of CaMKIV activity in ionomycin-treated HEK293 cells transiently expressing CaMKIV; format: cell-based; conditions: 5 μM ionomycin, n=4 wells; for CREB activity, % of the control level: HEK293 expressing CaMKIV; for IC50: HEK293 transiently expressing CaMKIV, read-out: IC50 for inhibition of CaMKIV (CREB activity)
T1 construct: expressed in transfected cells; host or cells: HEK293
T1 sequence (Q16566 1-473): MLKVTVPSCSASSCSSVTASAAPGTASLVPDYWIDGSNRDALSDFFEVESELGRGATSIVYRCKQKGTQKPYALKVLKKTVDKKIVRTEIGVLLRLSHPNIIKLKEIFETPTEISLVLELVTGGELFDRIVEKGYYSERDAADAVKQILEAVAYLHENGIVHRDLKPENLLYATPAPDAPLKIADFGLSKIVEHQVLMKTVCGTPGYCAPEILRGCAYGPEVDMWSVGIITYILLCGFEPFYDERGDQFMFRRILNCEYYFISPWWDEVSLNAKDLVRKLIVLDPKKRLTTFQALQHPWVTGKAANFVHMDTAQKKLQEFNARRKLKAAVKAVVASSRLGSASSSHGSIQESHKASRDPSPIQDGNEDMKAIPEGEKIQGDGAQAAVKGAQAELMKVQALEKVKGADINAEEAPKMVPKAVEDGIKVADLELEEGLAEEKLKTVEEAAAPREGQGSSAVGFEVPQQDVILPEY
Experimental: (§1) HEK293 cells were seeded into 96-well plates. The next day, cells were cotransfected with the CaMKIV construct, pGL3-CRE-firefly luciferase and pGL3-CMV-Renilla luciferase constructs using Lipofectamine 2000 reagent (Invitrogen, CA) according to the manufacturer's recommendation. The following day, cells were treated with fresh medium containing DMSO as vehicle control or 5 μM ionomycin (Sigma, Mo.) in the presence or absence of KN62 or KN93 (Sigma, MO) at serial concentrations. Cells were harvested 16 h later. Luciferase activity was assayed with cell lysis by using the dual-luciferase reporter assay system (Promega, WI) according to the manufacturer's protocol.
(§2) The dose-dependent inhibitory effect of KN62 and KN93 on CaMKIV transiently expressed in HEK293 cells was determined. CaMKIV can activate CREB and stimulate CREB-mediated transcription through the direct phosphorylation of CREB on Ser-133. To measure the CaMKIV activity by CREB activity assay, the CaMKIV expression plasmids and a CREB luciferase reporter system were cotransfected into HEK293 cells in this study. The calcium ionophore ionomycin treatment can lead to an increase in intracellular Ca^2+ and Ca^2+/CaM levels, which influence CaMKIV activity in cells. Ionomycin (5 μM) can dramatically increase CREB activity in HEK293 cells expressing CaMKIV. The CREB activity is 5.5±0.2 times that of unstimulated cells (p<0.0001, compared to the unstimulated cells, n=4 wells, FIG. 8A).

[5] = tested on: CREB activity in HEK293 cells expressing CaMKIV; assay: Ionomycin stimulation of CREB activity (luciferase reporter) in HEK293 cells expressing CaMKIV; format: cell-based; conditions: 5 μM ionomycin, n=4 wells, p<0.0001
Experimental: as §1
as §2, with “The CREB activity is 5.5±0.2 times that of unstimulated cells (p<0.0001, compared to the unstimulated cells, n=4 wells, FIG. 8A).” left out

Compound | CREB activity, % of the control level ([4]; 0.01 μM inhibitor) | CREB activity, % of the control level ([4]; 0.1 μM inhibitor) | CREB activity, % of the control level ([4]; 1.0 μM inhibitor) | CREB activity, % of the control level ([4]; 10 μM inhibitor) | CREB activity, % of the control level ([4]; 50 μM inhibitor) | CREB activity, % of the control level ([4]; 100 μM inhibitor) | IC50 [4] | other results
sequence 2: siRNA for mouse CaMKIV: sense 5′-CGGCUGACUACAUUUCAAGtt-3′, antisense 5′-CUUGAAAUGUAGUCAGCCGtt-3′ (sense CGGCUGACUACAUUUCAAGTT; antisense CUUGAAAUGUAGUCAGCCGTT; chemistry not given here) |  |  |  |  |  |  |  | knock down of the expression of CaMKIV (in words) (mouse CaMKIV): could not knock down
CN1CC[C@]23c4c5ccc(O)c4O[C@H]2[C@@H](O)C=C[C@H]3[C@H]1C5 [morphine] |  |  |  |  |  |  |  | decrease of the frequency of sIPSCs ([1]; acutely applied morphine, CaMKIV KO mice, n=6): 66.2±4.0%; decrease of the frequency of sIPSCs ([1]; acutely applied morphine, WT mice, n=7): 68.9±10.4%; decrease of the frequency of sIPSCs ([1]; slices pre-incubated in morphine at least 1 hour, CaMKIV KO mice, n=9): 55.7±6.9%; decrease of sIPSCs (in words) ([1]; slices pre-incubated in morphine at least 1 hour, WT mice, n=8, p>0.05): did not decrease; pCREB expression in spinal cord (western blot) ([2]; CaMKIV KO mice): absent; pCREB expression in spinal cord (western blot) ([2]; WT mice, p<0.001): significantly increased; pCREB in layer I and II of the dorsal horn (immunostaining) [3]: significantly increased
sequence 1: siRNA for mouse CaMKIV: sense 5′-GCAUGAUAUGCACUAAUAGtt-3′, antisense 5′-CUAUUAGUGCAUAUCAUGCtt-3′ (sense GCAUGAUAUGCACUAAUAGTT; antisense CUAUUAGUGCAUAUCAUGCTT; chemistry not given here) |  |  |  |  |  |  |  | expression level of CaMKIV, % of the control (mouse CaMKIV): 50.6±5.9%
CN([C@@H](Cc1ccc(OS(=O)(=O)c2cccc3cnccc23)cc1)C(=O)N1CCN(c2ccccc2)CC1)S(=O)(=O)c1cccc2cnccc12 [KN62, 4-[(25)-2-[(5-isoquinolinylsulfonyl)methylamino]-3-oxo-3-(4-phrenyl-1-piperazinyl)propyl]phenyl isoquinolinesulfonic acid ester] | 98.4±0.8% | 85.3±1.2% | 55.5±2.5% | 11.5±2.6% | 1.3±2.9% | 1.2±1.4% | 1.06 µM | 
C[C@H](CCC(=O)O)C[C@H](C)C[C@H](C)C(=O)/C=C(\O)[C@H](C)C[C@H](C)C/C=C/[C@@H](C)[C@@H](O)[C@@H](C)[C@@H](O)C[C@@H]1CC[C@@](C)([C@H]2CC[C@@](C)([C@@H](C)O)O2)O1 [Ionomycin, ionomycin] |  |  |  |  |  |  |  | CREB activity, times that of unstimulated cells [5]: 5.5±0.2 times
COc1ccc(S(=O)(=O)N(CCO)c2ccccc2CN(C)CC=Cc2ccc(Cl)cc2)cc1 [KN93, N-[2-[[[3-(4-Chlorophenyl)-2-propenyl]methylamino]methyl]phenyl]-N-(2-hydroxyethyl)-4-methoxybenzenesulphonamide] | 93.1±0.9% | 77.7±2.5% | 40.8±2.7% | 5.3±1.5% | 1.3±0.7% | 1.1±0.9% | 0.58 µM | 
